Test results taken from patent publication US10196385B2, “Tetrahydropyranyl benzamide derivatives” (Eli Lilly and Company, priority 2015, dated 2019).

What was measured:
GPR142 = GPR142 (Mus musculus (Mouse), UniProt Q7TQN9); test: Intraperitoneal Glucose Tolerance Tests (IPGTT); assay type: in vivo; settings: male C57BL/6 mice; for ED50 / ED80: oral dosing 30 minutes prior to i.p. glucose challenge (2 g/kg), glucose AUC lowering; for considered positive in the assay (reduction in glucose AUC, P<0.05): oral dosing, IPGTT
Description: Intraperitoneal Glucose Tolerance Tests (IPGTT)
IPGTT assay is used to examine the ability of exemplified compounds to activate GPR142 in vivo resulting in anti-diabetic efficacy, i.e. reduction in plasma glucose levels. Male C57BL/6 mice (8-10 weeks of age) are fed normal rodent chow diet and water ad libitum. On the night before the study, animals are fasted overnight in clean cages. On the morning of the study, animals are dosed orally with vehicle or compound at the indicated doses 30 minutes prior to the glucose challenge (2 g/kg) by intraperitoneal injection. Blood glucose levels are determined from tail bleeds taken immediately prior to compound dosing (−30 min) and 0, 15, 30, and 60 min after glucose challenge using handheld glucometers. Plasma is isolated from tail bleeds taken at 7 min after glucose challenge and used to determine insulin levels by the Rat/Mouse Insulin Elisa kit (Millipore) or MA6000 Mouse/Rat Insulin Kit (MSD). The blood glucose profile from t=0 to t=60 min is used to calculate an area under the curve (AUC) for each treatment. Percent lowering in glucose AUC is calculated for each treatment group with respect to the AUC of vehicle group. A compound with a reduction in glucose AUC (P<0.05) is considered positive in the assay.

human GPR142 = human GPR142 (Homo sapiens (Human), UniProt Q7Z601); test: GPR142 Agonist Effect as Measured by IP-1 Assay; assay type: cell-based; settings: HEK293 cells expressing human GPR142, Mean ± SEM; for Efficacy: IP-1 assay; for EC50: IP-One HTRF, read-out: hGPR142 IP1 EC50
Description: GPR142 Agonist Effect as Measured by IP-1 Assay
The purpose of this assay is to detect GPR142 agonist effect.
HEK293 cells expressing human GPR142 are maintained in DMEM supplemented with 10% FBS and 800 μg/ml G418 (Geneticin®) at 37° C. and 5% CO2. The cells are plated in 384 well plates at 5000 cells per well and allowed 18 hours for attachment. After addition of compounds at varying concentrations ranging from 30 μM to 1 nM, cells are incubated for 1 hr. IP-1 measurements are performed using an IP-One HTRF® assay kit (Cisbio) according to manufacturer's protocol using assay buffer containing 1×HBSS (+Ca, +Mg), 0.1% BSA, 50 mM LiCl and 20 mM HEPES, pH 7.2. The reaction is stopped by addition of IP1-d2 (IP-1 coupled to an organic HTRF acceptor) followed by cryptate solution (http://www.htrf.com/usa/htrf-chemistry). The plates are incubated at 25° C. for 1 hr. Fluorescence is read in an Envision instrument at 665 nm and 620 nm wavelength. The ratio of 665 nm/620 nm is calculated and converted to IP-1 levels using an IP-1 standard curve. The data is fit to a 4 parameter-fit logistics to determine EC50 values.

GPR142, sequence (Q7TQN9 whole entry): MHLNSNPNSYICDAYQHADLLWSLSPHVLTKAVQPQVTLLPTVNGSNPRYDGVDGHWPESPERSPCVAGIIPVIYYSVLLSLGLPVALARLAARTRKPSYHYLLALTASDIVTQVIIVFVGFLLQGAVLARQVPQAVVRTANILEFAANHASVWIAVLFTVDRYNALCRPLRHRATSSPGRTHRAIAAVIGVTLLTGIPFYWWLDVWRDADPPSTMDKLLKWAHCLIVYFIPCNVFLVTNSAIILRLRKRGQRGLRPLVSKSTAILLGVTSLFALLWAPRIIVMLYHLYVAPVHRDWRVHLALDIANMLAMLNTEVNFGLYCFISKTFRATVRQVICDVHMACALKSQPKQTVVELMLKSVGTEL
human GPR142, sequence (Q7Z601 whole entry): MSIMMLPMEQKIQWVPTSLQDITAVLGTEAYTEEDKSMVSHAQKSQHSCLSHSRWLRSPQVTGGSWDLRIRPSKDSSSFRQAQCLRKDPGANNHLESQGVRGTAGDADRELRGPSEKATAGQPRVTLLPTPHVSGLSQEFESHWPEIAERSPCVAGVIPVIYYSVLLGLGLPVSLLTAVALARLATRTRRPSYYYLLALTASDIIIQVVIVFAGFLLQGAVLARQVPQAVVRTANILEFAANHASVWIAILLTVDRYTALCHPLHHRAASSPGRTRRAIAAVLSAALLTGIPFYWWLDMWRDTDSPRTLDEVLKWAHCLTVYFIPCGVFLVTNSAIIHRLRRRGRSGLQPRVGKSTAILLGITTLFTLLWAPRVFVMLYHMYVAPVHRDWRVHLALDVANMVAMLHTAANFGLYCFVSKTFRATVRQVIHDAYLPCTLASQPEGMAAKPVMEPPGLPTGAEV

SMILES | ED50 (GPR142) | ED80 (GPR142) | considered positive in the assay (reduction in glucose AUC, P<0.05) (GPR142) | Efficacy (human GPR142) | EC50 (human GPR142)
Cc1ncn(C)c1-c1nnc([C@@H]2C[C@H](N(C)C(=O)c3cccc(OC(F)(F)F)c3)CCO2)[nH]1 (single isomer, unassigned; isomer 1) [Example 2, Cis-(chiral)-N-[2-[5-(1,4-Dimethyl-1H-imidazol-5-yl)-4H-1,2,4-triazol-3-yl]tetrahydro-2H-pyran-4-yl]-N-methyl-3-(trifluoromethoxy)benzamide, Isomer 1] | 0.24 mpk | 1.6 mpk | positive | 110 ± 2, n = 11% | 30.1 ± 4.2 nM
Cc1ncn(C)c1-c1nnc([C@@H]2C[C@H](N(C)C(=O)c3cccc(C(F)(F)F)c3)CCO2)[nH]1 (single isomer, unassigned; isomer 1) [Example 1, Cis-(chiral)-N-[(2-[5-(1,4-Dimethyl-1H-imidazol-5-yl)-4H-1,2,4-triazol-3-yl]tetrahydro-2H-pyran-4-yl]-N-methyl-3-(trifluoromethyl)benzamide, Isomer 1] | 0.30 mpk | 1.6 mpk | positive | 109 ± 3, n = 12% | 43.5 ± 7.9 nM
Cc1ncn(C)c1-c1nnc([C@@H]2C[C@H](N(C)C(=O)c3cccc(Cl)c3)CCO2)[nH]1 (single isomer, unassigned; isomer 1) [Example 3, Cis-(chiral)-3-Chloro-N-[2-[5-(1,4-dimethyl-1H-imidazol-5-yl)-4H-1,2,4-triazol-3-yl]tetrahydro-2H-pyran-4-yl]-N-methyl-benzamide, Isomer 1] |  |  |  | 112 ± 3, n = 7% | 27.2 ± 4.8 nM
